Assays:
[1] = tested on: C. acetobutylicum P262 Bcd; details: read-out: Km of the C. acetobutylicum P262 Bcd for butyryl-CoA; cited from earlier work
Bcd = details: read-out: Km of Bcd for butyryl-CoA; unit inferred; cited from earlier work
[2] = target: crotonase (Crt) from C. acetobutylicum (Clostridium acetobutylicum, UniProt P52046); details: crotonyl-CoA as substrate of C. acetobutylicum crotonase; cited from earlier work
M. elsdenii Bcd = target: T1, M. elsdenii Bcd (Megasphaera elsdenii, UniProt Q06319); details: inhibition of M. elsdenii Bcd; cited from earlier work
T1 sequence (Q06319 1-383): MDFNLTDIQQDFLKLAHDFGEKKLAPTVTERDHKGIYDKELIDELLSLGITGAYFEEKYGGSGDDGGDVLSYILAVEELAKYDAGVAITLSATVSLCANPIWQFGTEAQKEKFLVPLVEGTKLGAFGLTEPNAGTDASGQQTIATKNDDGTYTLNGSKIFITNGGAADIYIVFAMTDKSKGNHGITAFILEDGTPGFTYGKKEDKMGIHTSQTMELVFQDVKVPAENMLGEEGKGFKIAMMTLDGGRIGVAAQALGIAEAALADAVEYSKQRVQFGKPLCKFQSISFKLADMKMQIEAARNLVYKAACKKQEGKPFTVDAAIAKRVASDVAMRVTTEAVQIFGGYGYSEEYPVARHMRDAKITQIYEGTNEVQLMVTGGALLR

[3] = in-vitro activity assay of Hbd homologues in lysate, NADH consumption at 340 nm; type: biochemical; details: lysate of GEVO768 (E. coli W3110Z1) transformant, 0.1 mM acetoacetyl CoA, 0.2 mM NADH, pH 7.0
Excerpt: (§1) In particular, homologues of the pathway enzymes hydroxyl butyryl CoA dehydrogenase (Hbd), crotonase (Crt) and thiolase (Th1) were expressed and compared by in-vitro activity assay. The hydroxyl butyryl CoA dehydrogenase homologues tested were pGV1037 (Hbd from Clostridium acetobutylicum), pGV1041 (Hbd from Butyrivibrio fibrisolvens), pGV1050 (Hbd from Clostridium beijerinkii), and pGV1154 (Hbd from Clostridium acetobutylicum, codon optimized gene sequence). The crotonase homologues tested were pGV1040 (Crt from Butyrivibrio fibrisolvens), pGV1049 (Crt from Clostridium beijerinkii), pGV1094 (Crt from Clostridium acetobutylicum) and pGV1189 (Crt from Clostridium acetobutylicum, codon optimized gene sequence). The thiolase homologues tested were pGV1035 (Th1 from Clostridium acetobutylicum), pGV1039 (Th1 from Butyrivibrio fibrisolvens), and pGV1188 (Th1 from Clostridium acetobutylicum, codon optimized gene sequence). The genes were expressed and assayed as per the following outlined protocol
(§2) GEVO768 (E. coli W3110Z1) was transformed with each of the plasmids and the transformants were plated on LB media with 100 μg/mL of chloramphenicol. The plates were incubated at 37° C. for 14-16 hours. Single colonies of the clones were used to inoculate 3 mL of LB media with 100 μg/mL of chloramphenicol. The cultures were incubated overnight at 37° C. at 250 rpm. The overnight cultures were used to inoculate 50 mL of EZ-rich medium in shake flasks with 100 μg/mL of chloramphenicol. The cultures were incubated at 37° C. at 250 rpm. At mid-exponential growth phase (OD600 0.6-0.8) the cultures were induced with 1 mM IPTG. […]
(§3) To test the activity of Hbd, 10 μL of the lysate was added to 190 μL of 50 mM MOPS pH 7.0 buffer containing 0.1 mM acetoacetyl CoA, and 0.2 mM NADH. The activity of Hbd was measured by monitoring the consumption of NADH at 340 nm. […] Enzyme activity was measured by monitoring the consumption of crotonyl CoA at 263 nm. […] Enzyme activity was measured by monitoring the consumption of acetoacetyl CoA at 303 nm. […]

[4] = in-vitro activity assay of Crt homologues in lysate, crotonyl CoA consumption at 263 nm; type: biochemical; details: lysate of GEVO768 (E. coli W3110Z1) transformant, 30 μM crotonyl CoA, pH 7.6
Excerpt: as §1, §2, §3

For `CCCC(=O)SCCNC(=O)CCNC(=O)[C@H](O)C(C)(C)COP(=O)(O)OP(=O)(O)OC[C@H]1O[C@@H](n2cnc3c(N)ncnc32)[C@H](O)[C@@H]1OP(=O)(O)O` [butyryl-CoA], the Km [1] is given as about 6 µM and the Km (Bcd) is given as 5 µM.

In the case of `C/C=C/C(=O)SCCNC(=O)CCNC(=O)[C@H](O)C(C)(C)COP(=O)(O)OP(=O)(O)OC[C@H]1O[C@@H](n2cnc3c(N)ncnc32)[C@H](O)[C@@H]1OP(=O)(O)O` [crotonyl-CoA], the Km [2] is given as 30 µM and the Vmax [2] is given as 6.5×10^6 moles per min per mole.

In the case of `CC(=O)CC(=O)O` [acetoacetate], the Ki (M. elsdenii Bcd) is listed as 100 nM.

With “pGV1037: plasmid-expressed Hbd from Clostridium acetobutylicum” the “Specific activity (Hbd)” value [3] was 3.51 nmol/min/μg total cell protein.

For “pGV1154: plasmid-expressed Hbd from Clostridium acetobutylicum, codon optimized gene sequence”, the “Specific activity (Hbd)” value [3] was 11.69 nmol/min/μg total cell protein and the “Specific activity (Hbd)” value ([3]; listed as Hbd) was 11.6 nmol/min/μg total cell protein.

B1: GV1189: plasmid-expressed Crt from Clostridium acetobutylicum, codon optimized gene sequence (protein, UniProt P52046 1-261, looked up)
Short-chain-enoyl-CoA …: MELNNVILEKEGKVAVVTINRPKALNALNSDTLKEMDYVIGEIENDSEVLAVILTGAGEKSFVAGADISEMKEMNTIEGRKFGILGNKVFRRLELLEKPVIAAVNGFALGGGCEIAMSCDIRIASSNARFGQPEVGLGITPGFGGTQRLSRLVGMGMAKQLIFTAQNIKADEALRIGLVNKVVEPSELMNTAKEIANKIVSNAPVAVKLSKQAINRGMQCDIDTALAFESEAFGECFSTEDQKDAMTAFIEKRKIEGFKNR
For B1, the “Specific activity (Crt)” value [4] was 916.99 nmol/min/μg total cell protein and the “Specific activity (Crt)” value ([4]; listed as crotonase) was 1178 nmol/min/μg total cell protein.

B2: pGV1094: plasmid-expressed Crt from Clostridium acetobutylicum (protein, UniProt P52046 1-261, looked up)
Short-chain-enoyl-CoA …: MELNNVILEKEGKVAVVTINRPKALNALNSDTLKEMDYVIGEIENDSEVLAVILTGAGEKSFVAGADISEMKEMNTIEGRKFGILGNKVFRRLELLEKPVIAAVNGFALGGGCEIAMSCDIRIASSNARFGQPEVGLGITPGFGGTQRLSRLVGMGMAKQLIFTAQNIKADEALRIGLVNKVVEPSELMNTAKEIANKIVSNAPVAVKLSKQAINRGMQCDIDTALAFESEAFGECFSTEDQKDAMTAFIEKRKIEGFKNR
With B2 the “Specific activity (Crt)” value [4] was 83.39 nmol/min/μg total cell protein.

Reference: patent US20090155869A1 (Gevo, Inc., priority 2006, published 2009)
